Legend:
EKVX = test: Growth inhibition of human EKVX cells assessed as cell growth at 100 uM incubated for 48 hrs by sulforhodamine B assay relative to control; type: functional; conditions: read-out: Activity
MOLT-4 = test: Growth inhibition of human MOLT-4 cells assessed as cell growth at 0.01 uM incubated for 48 hrs by sulforhodamine B assay relative to control; type: functional; conditions: read-out: Activity
CAKI-1 [1] = test: Growth inhibition of human CAKI-1 cells assessed as cell growth at 0.1 uM incubated for 48 hrs by sulforhodamine B assay relative to control; type: functional; conditions: read-out: Activity
786-0 = test: Growth inhibition of human 786-0 cells assessed as cell growth at 1 uM incubated for 48 hrs by sulforhodamine B assay relative to control; type: functional; conditions: read-out: Activity
LOX IMVI = test: Growth inhibition of human LOX IMVI cells assessed as cell growth at 10 uM incubated for 48 hrs by sulforhodamine B assay relative to control; type: functional; conditions: read-out: Activity
MCF7 [2] = test: Growth inhibition of human MCF7 cells assessed as cell growth at 10 uM incubated for 48 hrs by sulforhodamine B assay relative to control; type: functional; conditions: read-out: Activity
M14 = test: Growth inhibition of human M14 cells incubated for 48 hrs by sulforhodamine B assay; type: functional
SW-620 = test: Growth inhibition of human SW-620 cells assessed as cell growth at 10 uM incubated for 48 hrs by sulforhodamine B assay relative to control; type: functional; conditions: read-out: Activity
PC-3 = test: Growth inhibition of human PC-3 cells assessed as cell growth at 100 uM incubated for 48 hrs by sulforhodamine B assay relative to control; type: functional; conditions: read-out: Activity
HCC 2998 [3] = test: Growth inhibition of human HCC 2998 cells assessed as cell growth at 0.1 uM incubated for 48 hrs by sulforhodamine B assay relative to control; type: functional; conditions: read-out: Activity
RXF 393 [4] = test: Growth inhibition of human RXF 393 cells assessed as cell growth at 10 uM incubated for 48 hrs by sulforhodamine B assay relative to control; type: functional; conditions: read-out: Activity
SN12C = test: Growth inhibition of human SN12C cells assessed as cell growth at 10 uM incubated for 48 hrs by sulforhodamine B assay relative to control; type: functional; conditions: read-out: Activity
OVCAR-8 [5] = test: Growth inhibition of human OVCAR-8 cells assessed as cell growth at 0.1 uM incubated for 48 hrs by sulforhodamine B assay relative to control; type: functional; conditions: read-out: Activity
IGROV-1 = test: Growth inhibition of human IGROV-1 cells assessed as cell growth at 10 uM incubated for 48 hrs by sulforhodamine B assay relative to control; type: functional; conditions: read-out: Activity
HCC 2998 [6] = test: Growth inhibition of human HCC 2998 cells incubated for 48 hrs by sulforhodamine B assay; type: functional
MDA-MB-231 = test: Growth inhibition of human MDA-MB-231 cells assessed as cell growth at 10 uM incubated for 48 hrs by sulforhodamine B assay relative to control; type: functional; conditions: read-out: Activity
MCF7 [7] = test: Growth inhibition of human MCF7 cells assessed as cell growth at 0.01 uM incubated for 48 hrs by sulforhodamine B assay relative to control; type: functional; conditions: read-out: Activity
COLO 205 = test: Growth inhibition of human COLO 205 cells assessed as cell growth at 10 uM incubated for 48 hrs by sulforhodamine B assay relative to control; type: functional; conditions: read-out: Activity
HCT-116 [8] = test: Growth inhibition of human HCT-116 cells assessed as cell growth at 0.1 uM incubated for 48 hrs by sulforhodamine B assay relative to control; type: functional; conditions: read-out: Activity
[9] = system: Poly(dA-dT)oligonucleotide; test: Displacement of ethidium bromide from minor groove of poly(dA:dT) dsDNA (unknown origin) by fluorescence spectrophotometry; type: nucleic-acid assay
NCI-H522 = test: Growth inhibition of human NCI-H522 cells assessed as cell growth at 0.1 uM incubated for 48 hrs by sulforhodamine B assay relative to control; type: functional; conditions: read-out: Activity
SF-295 = test: Growth inhibition of human SF-295 cells assessed as cell growth at 10 uM incubated for 48 hrs by sulforhodamine B assay relative to control; type: functional; conditions: read-out: Activity
SK-MEL-28 = test: Growth inhibition of human SK-MEL-28 cells assessed as cell growth at 10 uM incubated for 48 hrs by sulforhodamine B assay relative to control; type: functional; conditions: read-out: Activity
RXF 393 [10] = test: Growth inhibition of human RXF 393 cells assessed as cell growth at 100 uM incubated for 48 hrs by sulforhodamine B assay relative to control; type: functional; conditions: read-out: Activity
OVCAR-3 = test: Growth inhibition of human OVCAR-3 cells assessed as cell growth at 10 uM incubated for 48 hrs by sulforhodamine B assay relative to control; type: functional; conditions: read-out: Activity
A498 = test: Growth inhibition of human A498 cells assessed as cell growth at 10 uM incubated for 48 hrs by sulforhodamine B assay relative to control; type: functional; conditions: read-out: Activity
HCT-15 = test: Growth inhibition of human HCT-15 cells assessed as cell growth at 0.1 uM incubated for 48 hrs by sulforhodamine B assay relative to control; type: functional; conditions: read-out: Activity
SK-OV-3 = test: Growth inhibition of human SK-OV-3 cells assessed as cell growth at 10 uM incubated for 48 hrs by sulforhodamine B assay relative to control; type: functional; conditions: read-out: Activity
OVCAR-4 = test: Growth inhibition of human OVCAR-4 cells assessed as cell growth at 10 uM incubated for 48 hrs by sulforhodamine B assay relative to control; type: functional; conditions: read-out: Activity
NCI-H322M = test: Growth inhibition of human NCI-H322M cells assessed as cell growth at 100 uM incubated for 48 hrs by sulforhodamine B assay relative to control; type: functional; conditions: read-out: Activity
[11] = system: Poly(dA-dT)oligonucleotide; test: Binding affinity to minor groove of poly(dA:dT) dsDNA (unknown origin) assessed as change in melting temperature by UV-vis spectrophotometry based DNA melting assay; type: nucleic-acid assay
Hs-578T = test: Growth inhibition of human Hs-578T cells assessed as cell growth at 10 uM incubated for 48 hrs by sulforhodamine B assay relative to control; type: functional; conditions: read-out: Activity
MDA-MB-468 = test: Growth inhibition of human MDA-MB-468 cells assessed as cell growth at 10 uM incubated for 48 hrs by sulforhodamine B assay relative to control; type: functional; conditions: read-out: Activity
CAKI-1 [12] = test: Growth inhibition of human CAKI-1 cells assessed as cell growth at 1 uM incubated for 48 hrs by sulforhodamine B assay relative to control; type: functional; conditions: read-out: Activity
HCT-116 [13] = test: Growth inhibition of human HCT-116 cells assessed as cell growth at 10 uM incubated for 48 hrs by sulforhodamine B assay relative to control; type: functional; conditions: read-out: Activity
OVCAR-8 [14] = test: Growth inhibition of human OVCAR-8 cells assessed as cell growth at 10 uM incubated for 48 hrs by sulforhodamine B assay relative to control; type: functional; conditions: read-out: Activity
A549 = test: Growth inhibition of human A549/ATCC cells assessed as cell growth at 10 uM incubated for 48 hrs by sulforhodamine B assay relative to control; type: functional; conditions: read-out: Activity
UACC-257 = test: Growth inhibition of human UACC-257 cells assessed as cell growth at 0.1 uM incubated for 48 hrs by sulforhodamine B assay relative to control; type: functional; conditions: read-out: Activity
[15] = read-out: LC50 (the source's name)
[16] = read-out: pLC50 (the source's name) (converted)

CC(=O)Nc1cc(CO[Si](C)(C)C(C)(C)C)cc(NC(=O)c2ccc(C(=O)Nc3cccc(NC(=O)CCCN(C)C)c3)cc2)c1
growth at 100 µM (EKVX): 82%
growth at 0.01 µM (MOLT-4): 87%
growth at 0.1 µM (CAKI-1 [1]): 91%
growth at 1 µM (786-0): 93%
growth at 10 µM (LOX IMVI): 82%
growth at 10 µM (MCF7 [2]): 77%
GI50 (M14; read-out: GI50): > 75 µM
CC50 (M14; [15]): > 75 µM
TGI (M14; read-out: TGI): > 75 µM
GI50 (M14; read-out: pGI50 (converted)): > 75.9 µM
CC50 (M14; [16]): > 75.9 µM
TGI (M14; read-out: pTGI): > 75.9 µM
growth at 10 µM (SW-620): 99%
growth at 100 µM (PC-3): 93%
growth at 0.1 µM (HCC 2998 [3]): 97%
growth at 10 µM (RXF 393 [4]): 95%
growth at 10 µM (SN12C): 99%
growth at 0.1 µM (OVCAR-8 [5]): 97%
growth at 10 µM (IGROV-1): 90%
GI50 (HCC 2998 [6]; read-out: GI50): > 75 µM
CC50 (HCC 2998 [6]; [15]): > 75 µM
TGI (HCC 2998 [6]; read-out: TGI): > 75 µM
GI50 (HCC 2998 [6]; read-out: pGI50 (converted)): > 75.9 µM
CC50 (HCC 2998 [6]; [16]): > 75.9 µM
TGI (HCC 2998 [6]; read-out: pTGI): > 75.9 µM
growth at 10 µM (MDA-MB-231): 99%
growth at 0.01 µM (MCF7 [7]): 94%
growth at 10 µM (COLO 205): 98%
growth at 0.1 µM (HCT-116 [8]): 99%
C50 [9]: 5 µM
growth at 0.1 µM (NCI-H522): 91%
growth at 10 µM (SF-295): 95%
growth at 10 µM (SK-MEL-28): 87%
growth at 100 µM (RXF 393 [10]): 83%
growth at 10 µM (OVCAR-3): 104%
growth at 10 µM (A498): 77%
growth at 0.1 µM (HCT-15): 91%
growth at 10 µM (SK-OV-3): 103%
growth at 10 µM (OVCAR-4): 85%
growth at 100 µM (NCI-H322M): 74%
ΔTm [11]: 47.2 °C
growth at 10 µM (Hs-578T): 111%
growth at 10 µM (MDA-MB-468): 89%
growth at 1 µM (CAKI-1 [12]): 73%
growth at 10 µM (HCT-116 [13]): 99%
growth at 10 µM (OVCAR-8 [14]): 93%
growth at 10 µM (A549): 86%
growth at 0.1 µM (UACC-257): 90%

CC(=O)Nc1cc(CCl)cc(NC(=O)c2ccc(C(=O)Nc3cccc(NC(=O)CCCN(C)C)c3)cc2)c1
growth at 100 µM (EKVX): 84%
growth at 0.01 µM (MOLT-4): 102%
growth at 0.1 µM (CAKI-1 [1]): 98%
growth at 1 µM (786-0): 105%
growth at 10 µM (LOX IMVI): 92%
growth at 10 µM (MCF7 [2]): 71%
GI50 (M14; read-out: GI50): > 100 µM
CC50 (M14; [15]): > 100 µM
TGI (M14; read-out: TGI): > 100 µM
GI50 (M14; read-out: pGI50 (converted)): > 100 µM
CC50 (M14; [16]): > 100 µM
TGI (M14; read-out: pTGI): > 100 µM
growth at 10 µM (SW-620): 107%
growth at 100 µM (PC-3): 88%
growth at 0.1 µM (HCC 2998 [3]): 94%
growth at 10 µM (RXF 393 [4]): 96%
growth at 10 µM (SN12C): 105%
growth at 0.1 µM (OVCAR-8 [5]): 97%
growth at 10 µM (IGROV-1): 116%
GI50 (HCC 2998 [6]; read-out: GI50): > 100 µM
CC50 (HCC 2998 [6]; [15]): > 100 µM
TGI (HCC 2998 [6]; read-out: TGI): > 100 µM
GI50 (HCC 2998 [6]; read-out: pGI50 (converted)): > 100 µM
CC50 (HCC 2998 [6]; [16]): > 100 µM
TGI (HCC 2998 [6]; read-out: pTGI): > 100 µM
growth at 10 µM (MDA-MB-231): 106%
growth at 0.01 µM (MCF7 [7]): 88%
growth at 10 µM (COLO 205): 105%
growth at 0.1 µM (HCT-116 [8]): 107%
C50 [9]: 9.9 µM
growth at 0.1 µM (NCI-H522): 89%
growth at 10 µM (SF-295): 66%
growth at 10 µM (SK-MEL-28): 96%
growth at 100 µM (RXF 393 [10]): 96%
growth at 10 µM (OVCAR-3): 113%
growth at 10 µM (A498): 87%
growth at 0.1 µM (HCT-15): 88%
growth at 10 µM (SK-OV-3): 114%
growth at 10 µM (OVCAR-4): 99%
growth at 100 µM (NCI-H322M): 103%
ΔTm [11]: 38.7 °C
growth at 10 µM (Hs-578T): 111%
growth at 10 µM (MDA-MB-468): 91%
growth at 1 µM (CAKI-1 [12]): 95%
growth at 10 µM (HCT-116 [13]): 106%
growth at 10 µM (OVCAR-8 [14]): 98%
growth at 10 µM (A549): 101%
growth at 0.1 µM (UACC-257): 93%
